Tests used:
[1] = HPLC lipophilicity on IAM (immobilized artificial membrane, phosphatidylcholine) stationary phase; assay type: physicochemical; conditions: pH 7.4; for Log k IAM: Table S2; for -S IAM: slope of Soczewiński–Wachtmeister equation; for -S IAM / log kw IAM: ACN/20 mM phosphate buffer; for log kw IAM: intercept, linear extrapolation to water
In short: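 Rexchrom IAM.PC.DD2 column with ACN/20 mM phosphate buffer pH 7.4 (0.15 M KCl), ACN fraction 0.05–0.4 v/v at 0.05 steps, 1 mL/min, UV 280 nm, room temperature; t0 from citric acid. log kw and slope S extrapolated via Soczewiński–Wachtmeister equation.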

[2] = HPLC lipophilicity on cholesterol (Chol) stationary phase; assay type: physicochemical; conditions: pH 7.4; for Log k Chol: Table S3; for log kw Chol: intercept, linear extrapolation to water; for log kw Chol / -S Chol: MeOH/20 mM acetate buffer; for -S Chol: slope of Soczewiński–Wachtmeister equation
In short: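 Cholesterol-bonded column run isocratically with MeOH/20 mM acetate buffer at pH 7.4, MeOH fraction 0.3–0.8 (v/v), 0.35 mL/min, room temperature, UV 280 nm. t0 from citric acid; log kw (intercept) and slope S from Soczewiński–Wachtmeister regression of log k against modifier content.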

[3] = target: T1, human serum albumin (HSA) (Homo sapiens, UniProt P02768); test: HPLC on immobilized HSA column, affinity and % plasma–protein binding; assay type: in vitro ADME; conditions: for log K HSA: binding equilibrium constant from calibration curve (Equation 8) of log k HSA; for fraction unbound: human, pH 7.4, % plasma–protein binding converted from log K HSA (Equation 10), read-out: %PPB HSA (converted); for log k HSA: retention on HSA column, 50 mM ammonium acetate pH 7.4 / propan-2-ol 85/15 (v/v)
T1 construct: purchased Chiralpac
T1 sequence (P02768 25-609): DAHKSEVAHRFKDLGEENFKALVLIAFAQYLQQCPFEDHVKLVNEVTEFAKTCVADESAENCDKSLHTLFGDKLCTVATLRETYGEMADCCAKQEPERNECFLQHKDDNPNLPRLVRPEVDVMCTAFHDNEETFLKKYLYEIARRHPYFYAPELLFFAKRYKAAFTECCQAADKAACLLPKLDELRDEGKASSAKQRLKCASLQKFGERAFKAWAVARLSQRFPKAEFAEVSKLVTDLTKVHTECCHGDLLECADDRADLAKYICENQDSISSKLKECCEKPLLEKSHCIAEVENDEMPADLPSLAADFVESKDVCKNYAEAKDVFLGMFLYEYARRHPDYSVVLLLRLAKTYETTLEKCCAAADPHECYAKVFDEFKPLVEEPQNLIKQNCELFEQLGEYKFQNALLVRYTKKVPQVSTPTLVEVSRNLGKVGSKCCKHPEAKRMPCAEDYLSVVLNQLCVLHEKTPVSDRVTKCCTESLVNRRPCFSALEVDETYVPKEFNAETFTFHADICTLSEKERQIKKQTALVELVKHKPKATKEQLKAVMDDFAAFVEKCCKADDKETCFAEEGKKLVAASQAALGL
In short: (§1)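 Retention (log k) on immobilized-protein HPLC columns, 50 mM ammonium acetate pH 7.4 with propan-2-ol (85/15 for AGP), UV 280 nm, room temperature. log K read from drug calibration curves, then converted to %PPB.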

[4] = tested on: α1-acid glycoprotein (AGP); test: HPLC on immobilized AGP column, affinity and % plasma–protein binding; assay type: in vitro ADME, human; conditions: for log K AGP: binding equilibrium constant from calibration curve (Equation 9) of log k AGP; for fraction unbound: human, pH 7.4, % plasma–protein binding converted from log K AGP (Equation 10), read-out: %PPB AGP (converted); for log k AGP: retention on AGP column, 50 mM ammonium acetate pH 7.4 / propan-2-ol 85/15 (v/v)
In short: as §1

[5] = parameters: method as in Kozyra et al. [31]; conditions: MeOH/20 mM acetate buffer, pH 7.4, ref Kozyra et al. [31], cited from earlier work; for log kw C-18: intercept of Soczewiński–Wachtmeister equation (water as mobile phase); for -S C-18: slope of Soczewiński–Wachtmeister equation

Compound | Log k IAM ([1]; ACN 0.15 v/v in mobile phase) | Log k IAM ([1]; ACN 0.20 v/v in mobile phase) | Log k IAM ([1]; ACN 0.25 v/v in mobile phase) | Log k IAM ([1]; ACN 0.30 v/v in mobile phase) | Log k IAM ([1]; ACN 0.35 v/v in mobile phase) | -S IAM [1] | Log k Chol ([2]; MeOH 0.45 v/v in mobile phase) | Log k Chol ([2]; MeOH 0.50 v/v in mobile phase) | Log k Chol ([2]; MeOH 0.60 v/v in mobile phase) | Log k Chol ([2]; MeOH 0.80 v/v in mobile phase) | log kw Chol [2] | -S Chol [2] | log K HSA [3] | fraction unbound [3] | log k HSA [3] | log K AGP [4] | fraction unbound [4] | log k AGP [4] | log kw C-18 [5] | -S C-18 [5] | other results
O=C(COc1ccccc1)NNC(=S)Nc1ccc(Cl)cc1Cl [Compound 13] | 1.240 | 0.870 | 0.557 | 0.067 | -0.103 | 6.2034 | 0.978 | 0.627 | 0.400 | -1.016 | 3.4517 | 5.4505 | 1.6879 | 0.01 | 1.3649 | 0.5886 | 0.197 | 0.4665 | 3.2152 | 5.1803 | Log k IAM ([1]; ACN 0.40 v/v in mobile phase): -0.430; Log k Chol ([2]; MeOH 0.40 v/v in mobile phase): 1.246; Log k Chol ([2]; MeOH 0.70 v/v in mobile phase): -0.329
O=C(COc1ccccc1)NNC(=S)Nc1cc(Cl)ccc1Cl [Compound 14] | 1.494 | 1.133 | 0.710 | 0.154 | -0.027 | 7.6211 | 1.095 | 0.716 | 0.574 | -0.783 | 3.4243 | 5.1337 | 2.2183 | – | 1.8689 | 0.8829 | 0.107 | 0.7971 | 3.7050 | 5.6376 | Log k IAM ([1]; ACN 0.40 v/v in mobile phase): -0.366; log kw IAM [1]: 2.6121; Log k Chol ([2]; MeOH 0.70 v/v in mobile phase): -0.138
O=C(COc1ccccc1)NNC(=S)Nc1ccc(Cl)c(Cl)c1 [Compound 15] | 1.542 | 1.032 | 0.667 | 0.158 | -0.062 | 7.5617 | 1.349 | 1.013 | 0.792 | -0.876 | 4.2283 | 6.2128 | 1.8712 | 0.003 | 1.5391 | 0.9150 | 0.099 | 0.8332 | 3.3757 | 5.3305 | Log k IAM ([1]; ACN 0.40 v/v in mobile phase): -0.346; log kw IAM [1]: 2.5780; Log k Chol ([2]; MeOH 0.70 v/v in mobile phase): -0.087
O=C(COc1ccccc1)NNC(=S)Nc1ccc([N+](=O)[O-])cc1 [Compound 16] | 0.590 | 0.253 | 0.016 | – | -0.533 | 6.0875 | 0.478 | 0.093 | -0.189 | – | 2.8538 | 5.2122 | 1.7456 | 0.008 | 1.4198 | 0.3508 | 0.302 | 0.1994 | 2.7200 | 5.1865 | Log k IAM ([1]; ACN 0.05 v/v in mobile phase): 1.287; Log k IAM ([1]; ACN 0.10 v/v in mobile phase): 0.964; log kw IAM [1]: 1.5455; Log k Chol ([2]; MeOH 0.30 v/v in mobile phase): 1.264; Log k Chol ([2]; MeOH 0.35 v/v in mobile phase): 1.082; Log k Chol ([2]; MeOH 0.40 v/v in mobile phase): 0.843
CSc1ccc(NC(=S)NNC(=O)COc2ccccc2)cc1 [Compound 17] | 0.821 | 0.513 | 0.282 | -0.101 | -0.280 | 5.7908 | 0.878 | 0.510 | 0.379 | -0.975 | 3.1664 | 5.0386 | 1.6830 | 0.011 | 1.3603 | 0.6672 | 0.169 | 0.5548 | 2.6753 | 4.6859 | Log k IAM ([1]; ACN 0.10 v/v in mobile phase): 1.147; log kw IAM [1]: 1.6998; Log k Chol ([2]; MeOH 0.35 v/v in mobile phase): 1.434; Log k Chol ([2]; MeOH 0.40 v/v in mobile phase): 1.108; Log k Chol ([2]; MeOH 0.70 v/v in mobile phase): -0.316
O=C(COc1ccccc1)NNC(=S)Nc1cccc2ccccc12 [Compound 18] | 0.809 | 0.533 | 0.278 | -0.130 | -0.258 | 5.6500 | 0.758 | 0.405 | 0.062 | -1.016 | 3.0227 | 5.0400 | 1.5246 | 0.019 | 1.2098 | 0.7514 | 0.142 | 0.6494 | 2.6769 | 4.6919 | Log k IAM ([1]; ACN 0.10 v/v in mobile phase): 1.105; log kw IAM [1]: 1.6606; Log k Chol ([2]; MeOH 0.30 v/v in mobile phase): 1.494; Log k Chol ([2]; MeOH 0.35 v/v in mobile phase): 1.296; Log k Chol ([2]; MeOH 0.40 v/v in mobile phase): 1.025
